The results in this text go back to ChEMBL document CHEMBL3232801, “Oxidative stress in Alzheimer's disease: are we connecting the dots?” (J Med Chem, 2014).

In assay [1] the target is T1, Acetylcholinesterase (Homo sapiens, UniProt P22303). In words: Inhibition of AChE (unknown origin).
Assay [2] concerns the target T1, Acetylcholinesterase. In words: Inhibition of AChE (unknown origin)-mediated amyloid beta aggregation at 100 uM.
The target in assay [3] is T2, Amyloid-beta precursor protein (Homo sapiens, UniProt P05067). Description: Inhibition of amyloid beta (unknown origin) aggregation.
T2 sequence (P05067 whole entry): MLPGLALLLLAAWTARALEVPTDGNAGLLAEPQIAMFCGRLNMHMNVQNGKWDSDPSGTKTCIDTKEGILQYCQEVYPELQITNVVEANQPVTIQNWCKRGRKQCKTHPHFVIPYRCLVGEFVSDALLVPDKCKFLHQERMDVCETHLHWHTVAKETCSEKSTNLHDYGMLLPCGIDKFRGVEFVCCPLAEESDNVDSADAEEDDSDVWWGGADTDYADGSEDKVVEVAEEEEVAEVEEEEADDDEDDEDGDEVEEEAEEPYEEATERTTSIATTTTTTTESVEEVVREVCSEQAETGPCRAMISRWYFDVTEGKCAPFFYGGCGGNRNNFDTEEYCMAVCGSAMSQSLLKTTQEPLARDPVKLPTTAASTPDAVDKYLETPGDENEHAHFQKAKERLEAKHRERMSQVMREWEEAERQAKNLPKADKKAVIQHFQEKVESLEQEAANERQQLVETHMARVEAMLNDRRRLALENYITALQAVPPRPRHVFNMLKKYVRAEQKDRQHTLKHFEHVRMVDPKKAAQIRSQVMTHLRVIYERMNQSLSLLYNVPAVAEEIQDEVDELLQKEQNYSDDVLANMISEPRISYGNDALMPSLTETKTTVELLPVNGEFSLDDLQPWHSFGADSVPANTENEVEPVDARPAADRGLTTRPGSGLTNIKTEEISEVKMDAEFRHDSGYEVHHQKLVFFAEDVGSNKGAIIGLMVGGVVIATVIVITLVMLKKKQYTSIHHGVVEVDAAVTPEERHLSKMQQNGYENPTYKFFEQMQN
For assay [4], the target named is T2, Amyloid-beta precursor protein. Description: Inhibition of amyloid beta (unknown origin) aggregation at 10 uM.
The target of assay [5] is T1, Acetylcholinesterase. Description: Inhibition of AChE (unknown origin) assessed as inhibition of ROS production.
Assay [6] deals with T2, Amyloid-beta precursor protein. In words: Inhibition of amyloid beta (unknown origin) aggregation at 25 uM.

T1 sequence (P22303 whole entry): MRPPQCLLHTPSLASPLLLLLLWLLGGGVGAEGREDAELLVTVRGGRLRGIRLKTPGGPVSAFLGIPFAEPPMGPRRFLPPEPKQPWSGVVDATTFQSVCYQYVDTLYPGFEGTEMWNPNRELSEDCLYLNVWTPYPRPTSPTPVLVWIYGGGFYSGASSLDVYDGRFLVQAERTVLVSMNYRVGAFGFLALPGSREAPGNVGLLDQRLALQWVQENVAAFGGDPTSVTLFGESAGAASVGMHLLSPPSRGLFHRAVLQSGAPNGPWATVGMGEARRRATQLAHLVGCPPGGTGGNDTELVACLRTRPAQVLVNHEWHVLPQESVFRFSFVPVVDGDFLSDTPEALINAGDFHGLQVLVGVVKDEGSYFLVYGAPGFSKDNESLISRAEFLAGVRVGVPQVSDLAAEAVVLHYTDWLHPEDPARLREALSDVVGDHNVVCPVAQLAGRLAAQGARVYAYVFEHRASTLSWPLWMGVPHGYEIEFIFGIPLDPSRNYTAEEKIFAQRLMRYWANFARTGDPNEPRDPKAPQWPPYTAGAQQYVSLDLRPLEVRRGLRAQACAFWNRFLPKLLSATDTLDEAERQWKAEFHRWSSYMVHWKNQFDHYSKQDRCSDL

As a reminder, the IC50 is the concentration at which inhibition is half-maximal. One may read the inhibition as the drop in the measured response relative to a control, in per cent. The low end stands for little suppression, the high end for strong suppression. As to `c1ccc2c(NCCSSCCNc3c4c(nc5ccccc35)CCCC4)c3c(nc2c1)CCCC3`, the half-maximal inhibitory concentration (IC50) on Acetylcholinesterase [1] worked out at 5.04 nM; in assay [3], 24200 nM. The inhibition against Acetylcholinesterase [2] was found to be 52.6%.

Take `O=C(CCCOc1cccc2[nH]c3ccccc3c12)NCCCNc1c2c(nc3ccccc13)CCCC2`: the IC50 worked out at 2.15 nM against Acetylcholinesterase [1] and 23000 nM at Acetylcholinesterase [5]. Besides, the inhibition at Acetylcholinesterase [2] came to 57.7%; in assay [4], 36%.

Compound `COc1cc(/C=C/C(=O)NCCCCCCNc2c3c(nc4ccccc24)CCCC3)ccc1O` had an IC50 at Acetylcholinesterase [1] of 11.6 nM. Further, in assay [6], the inhibition worked out at 100%.
